The text below walks through data of patent publication US12528800B2, “Pesticidal compounds” (BASF SE, priority 2018, dated 2026).

Holding throughout (type): in vivo
The subject of test [1] is Orchid thrips (Dichromothrips corbetti). In words: Action on orchid thrips (Dichromothrips corbetti), floral-immersion technique. Conditions: adult thrips, 72 hours after treatment, read-out: mortality in comparison with untreated controls. As for the experimental part:
Dichromothrips corbetti adults used for bioassay were obtained from a colony maintained continuously under laboratory conditions. For testing purposes, the test compound is diluted in a 1:1 mixture of acetone:water (vol:vol), plus Kinetic® HV at a rate of 0.01% v/v.
Thrips potency of each compound was evaluated by using a floral-immersion technique. All petals of individual, intact orchid flowers were dipped into treatment solution and allowed to dry in Petri dishes. Treated petals were placed into individual re-sealable plastic along with about 20 adult thrips. All test arenas were held under continuous light and a temperature of about 28° C. for duration of the assay. After 3 days, the numbers of live thrips were counted on each petal. The percent mortality was recorded 72 hours after treatment.

The subject of test [2] is Diamond back moth (Plutella xylostella). In words: Action on diamond back moth (Plutella xylostella), cabbage leaf dip. Conditions: foliar, 3rd instar larvae on dipped cabbage leaves, 72 hours after treatment, read-out: mortality in comparison with untreated controls. As to the method: The active compound is dissolved at the desired concentration in a mixture of 1:1 (v/v) distilled water: acetone. Surfactant (Kinetic® HV) is added at a rate of 0.01% (v/v). The test solution is prepared at the day of use.
Leaves of cabbage were dipped in test solution and air-dried. Treated leaves were placed in petri dishes lined with moist filter paper and inoculated with ten 3rd instar larvae. Mortality was recorded 72 hours after treatment. Feeding damages were also recorded using a scale of 0-100%.

Test [3] relates to boll weevil (Anthonomus grandis). In words: Action on boll weevil (Anthonomus grandis), microtiter plate diet test. The following applies: 120 h, egg and larval mortality after 5 days, read-out: mortality in comparison with untreated controls. As to the method:
For evaluating control of boll weevil (Anthonomus grandis) the test unit consisted of 96-well-microtiter plates containing an insect diet and 5-10 A. grandis eggs.
The compounds were formulated using a solution containing 75% (v/v) water and 25% (v/v) DMSO. Different concentrations of formulated compounds were sprayed onto the insect diet at 5 μl, using a custom built micro atomizer, at two replications.
After application, microtiter plates were incubated at about 25+1° C. and about 75+5% relative humidity for 5 days. Egg and larval mortality was then visually assessed.

For test [4], the system named is tobacco budworm (Heliothis virescens). In words: Action on tobacco budworm (Heliothis virescens), microtiter plate diet test. Conditions: 120 h, egg and larval mortality after 5 days, read-out: mortality in comparison with untreated controls. As for the experimental part: For evaluating control of tobacco budworm (Heliothis virescens) the test unit consisted of 96-well-microtiter plates containing an insect diet and 15-25 H. virescens eggs.
The compounds were formulated using a solution containing 75% v/v water and 25% v/v DMSO. Different concentrations of formulated compounds were sprayed onto the insect diet at 10 μl, using a custom-built micro atomizer, at two replications.
After application, microtiter plates were incubated at about 28+1° C. and about 80+5% relative humidity for 5 days. Egg and larval mortality were then visually assessed.

For test [5], the system named is Southern armyworm (Spodoptera eridania), 2nd instar larvae. As to the kind of experiment: Action on southern armyworm (Spodoptera eridania), 2nd instar larvae, sprayed lima bean plants. Conditions: 96 h, 2nd instar larvae on lima bean plants, 4 days after treatment, read-out: mortality in comparison with untreated controls. As for the experimental part: The active compounds were formulated by a Tecan liquid handler in 100% cyclohexanone as a 10,000 ppm solution supplied in tubes. The 10,000 ppm solution was serially diluted in 100% cyclohexanone to make interim solutions. These served as stock solutions for which final dilutions were made by the Tecan in 50% acetone:50% water (v/v) into 10 or 20 ml glass vials. A nonionic surfactant (Kinetic®) was included in the solution at a volume of 0.01% (v/v). The vials were then inserted into an automated electrostatic sprayer equipped with an atomizing nozzle for application to plants/insects.
Lima bean plants (variety Sieve) were grown 2 plants to a pot and selected for treatment at the 1st true leaf stage. Test solutions were sprayed onto the foliage by an automated electrostatic plant sprayer equipped with an atomizing spray nozzle. The plants were dried in the sprayer fume hood and then removed from the sprayer. Each pot was placed into perforated plastic bags with a zip closure. About 10 to 11 armyworm larvae were placed into the bag and the bags zipped closed. Test plants were maintained in a growth room at about 25° C. and about 20-40% relative humidity for 4 days, avoiding direct exposure to fluorescent light (24 hour photoperiod) to prevent trapping of heat inside the bags. Mortality and reduced feeding were assessed 4 days after treatment, compared to untreated control plants.

Test [6] relates to yellow fever mosquito (Aedes aegypti). As to the kind of experiment: whole plant or invertebrate. The following applies: 48 h, larval mortality visually assessed after 2 days, read-out: mortality in comparison with untreated controls. As for the experimental part:
For evaluating control of yellow fever mosquito (Aedes aegypti) the test unit consisted of 96-well-microtiter plates containing 200 μl of tap water per well and 5-15 freshly hatched A. aegypti larvae.
The active compounds or mixtures were formulated using a solution containing 75% (v/v) water and 25% (v/v) DMSO. Different concentrations of formulated compounds or mixtures were sprayed onto the insect diet at 2.5 μl using a custom built micro atomizer, at two replications.
For experimental mixtures in these tests identical volumes of both mixing partners at the desired concentrations respectively, were mixed together.
After application, microtiter plates were incubated at 28+1° C., 80+5% RH for 2 days. Larval mortality was then visually assessed.

For the compound `CCn1nc(-c2ccc(/C=N/NC(=S)Nc3ccccc3C(C)C)cc2)cc1NC(=O)c1ccc(OC(F)(F)F)cc1` [Compound C-29, N-[2-ethyl-5-[4-[(E)-[(2-isopropylphenyl)carbamothioylhydrazono]methyl]phenyl]pyrazol-3-yl]-4-(trifluoromethoxy)benzamide], the mortality at 500 ppm in test [1] and in test [2] was not below 75% throughout. For the same compound, the mortality at 800 ppm is not below 75% in test [3], not below 75% in test [4] and not below 50% in test [6]. For the same compound, the mortality at 300 ppm in test [5] is not below 75%.
In the case of `CCn1nc(-c2ccc(NC(=O)O[C@@H]3O[C@@H](C)[C@H](OC)[C@@H](OC)[C@H]3OC)cc2)cc1NCc1ccc(OC(F)(F)F)cc1` [Compound C-40, [(2S,3R,4R,5S,6S)-3,4,5-trimethoxy-6-methyl-tetrahydropyran-2-yl] N-[4-[1-ethyl-5-[[4-(trifluoromethoxy)phenyl]methylamino]pyrazol-3-yl]phenyl]carbamate], in test [2], the mortality at 500 ppm is not below 75%. The mortality at 800 ppm in test [3] is not below 75%; in test [4], not below 75%; in test [6] it was not below 50%.
With `CC(C)c1ccccc1N1C(=O)CS/C1=N\N=C\c1ccc(-c2nc(NC(=O)c3ccc(OC(F)(F)F)cc3)n(C)n2)cc1` [Compound C-64, N-[5-[4-[(E)-[(Z)-[3-(2-isopropylphenyl)-4-oxo-thiazolidin-2-ylidene]hydrazono]methyl]phenyl]-2-methyl-1,2,4-triazol-3-yl]-4-(trifluoromethoxy)benzamide], the mortality at 500 ppm in test [1] and in test [2] was not below 75% each time. The mortality at 800 ppm in test [3] is not below 75%; in test [4], not below 75%; in test [6] it was not below 50%. Besides, the mortality at 300 ppm in test [5] is not below 75%.
Regarding `CC(C)c1ccccc1NC(=S)N/N=C/c1ccc(-c2nc(NC(=O)c3ccc(OC(F)(F)F)cc3)n(C)n2)cc1` [Compound C-63, N-[5-[4-[(E)-[(2-isopropylphenyl)carbamothioylhydrazono]methyl]phenyl]-2-methyl-1,2,4-triazol-3-yl]-4-(trifluoromethoxy)benzamide], the mortality at 500 ppm in test [1] and in test [2] was not below 75% each time. Further, the mortality at 800 ppm in test [3] and in test [4] was not below 75% in each case.
As for `CC(C)c1ccccc1N1C(=O)CS/C1=N\N=C\c1ccc(-c2cc(C(=O)Nc3ccc(OC(F)(F)F)cc3)n(C)n2)cc1` [Compound C-47, 5-[4-[(E)-[(Z)-[3-(2-isopropylphenyl)-4-oxo-thiazolidin-2-ylidene]hydrazono]methyl]phenyl]-2-methyl-N-[4-(trifluoromethoxy)phenyl]pyrazole-3-carboxamide], the mortality at 500 ppm in test [2] was not below 75%. Also, the mortality at 800 ppm in test [4] is not below 75%; in test [6] it was not below 50%. The mortality at 300 ppm in test [5] is not below 75%.
Regarding `CCn1nc(-c2ccc(/C=N/O[C@@H]3O[C@@H](C)[C@H](OC)[C@@H](OC)[C@H]3OC)cc2)cc1NC(=O)c1ccc(OC(F)(F)F)cc1` [Compound C-32, N-[2-ethyl-5-[4-[(E)-[(2S,3R,4R,5S,6S)-3,4,5-trimethoxy-6-methyl-tetrahydropyran-2-yl]oxyiminomethyl]phenyl]pyrazol-3-yl]-4-(trifluoromethoxy)benzamide], in test [2], the mortality at 500 ppm is not below 75%. The mortality at 800 ppm in test [3] was not below 75%; in test [4], not below 75%; in test [6], not below 50%. For the same compound, the mortality at 300 ppm in test [5] was not below 75%.
Take `CC(C)c1ccccc1NC(=S)N/N=C/c1ccc(-c2cc(NC(=O)c3ccc(OC(F)(F)F)cc3)[nH]n2)cc1` [Compound C-57, N-[3-[4-[(E)-[(2-isopropylphenyl)carbamothioylhydrazono]methyl]phenyl]-1H-pyrazol-5-yl]-4-(trifluoromethoxy)benzamide]: the mortality at 500 ppm in test [1] and in test [2] was not below 75% throughout. In addition, the mortality at 800 ppm was not below 75% in test [3], not below 75% in test [4] and not below 50% in test [6].
With `CC(C)c1ccccc1/N=C1\SCC(=O)N1/N=C/c1ccc(-c2cc(OCc3ccc(OC(F)(F)F)cc3)n(C)n2)cc1` [Compound C-12, (2Z)-2-(2-isopropylphenyl)imino-3-[(E)-[4-[1-methyl-5-[[4-(trifluoromethoxy)phenyl]methoxy]pyrazol-3-yl]phenyl]methyleneamino]thiazolidin-4-one], the mortality at 500 ppm in test [2] is not below 75%. The mortality at 800 ppm in test [3] was not below 75%; in test [4] it was not below 75%; in test [6], not below 50%. Moreover, the mortality at 300 ppm in test [5] is not below 75%.
For the compound `CCn1nc(-c2ccc(NC(=O)O[C@@H]3O[C@@H](C)[C@H](OC)[C@@H](OC)[C@H]3OC)cc2)cc1NC(=O)c1ccc(OC(F)(F)F)cc1` [Compound C-33, [(2S,3R,4R,5S,6S)-3,4,5-trimethoxy-6-methyl-tetrahydropyran-2-yl] N-[4-[1-ethyl-5-[[4-(trifluoromethoxy)benzoyl]amino]pyrazol-3-yl]phenyl]carbamate], in test [2], the mortality at 500 ppm was not below 75%. Besides, the mortality at 800 ppm in test [3] was not below 75%; in test [4] it was not below 75%; in test [6] it was not below 50%.
Take `CC(C)c1ccccc1N1C(=O)CS/C1=N\N=C\c1ccc(-c2cc(NC(=O)c3ccc(OC(F)(F)F)cc3)[nH]n2)cc1` [Compound C-58, N-[3-[4-[(E)-[(Z)-[3-(2-isopropylphenyl)-4-oxo-thiazolidin-2-ylidene]hydrazono]methyl]phenyl]-1H-pyrazol-5-yl]-4-(trifluoromethoxy)benzamide]: the mortality at 500 ppm in test [1] and in test [2] was not below 75% each time. In addition, the mortality at 800 ppm in test [3] was not below 75%; in test [4], not below 75%; in test [6] it was not below 50%.
With `Cc1c(-c2ccc(/C=N/NC(=S)Nc3ccccc3C(C)C)cc2)nn(C)c1NC(=O)c1ccc(C(F)(F)F)cc1` [Compound C-15, N-[5-[4-[(E)-[(2-isopropylphenyl)carbamothioylhydrazono]methyl]phenyl]-2,4-dimethyl-pyrazol-3-yl]-4-(trifluoromethyl)benzamide], the mortality at 500 ppm in test [1] and in test [2] was not below 75% in each case. Also, the mortality at 800 ppm in test [3] and in test [4] was not below 75% throughout. In addition, the mortality at 300 ppm in test [5] is not below 75%.
Consider `CC(C)c1ccccc1N1C(=O)CS/C1=N\N=C\c1ccc(-c2cc(NC(=N)c3ccc(OC(F)(F)F)cc3)n(C)n2)cc1` [Compound C-6, N-[5-[4-[(E)-[(Z)-[3-(2-isopropylphenyl)-4-oxo-thiazolidin-2-ylidene]hydrazono]methyl]phenyl]-2-methyl-pyrazol-3-yl]-4-(trifluoromethoxy) benzamidine], for which the mortality at 500 ppm in test [2] was not below 75%. Also, the mortality at 800 ppm in test [3] was not below 75%; in test [4] it was not below 75%; in test [6], not below 50%. Further, the mortality at 300 ppm in test [5] is not below 75%.

As usually defined, the mortality is the share of the test organisms that died.
